± gives the standard deviation of the reports.
Row | Structure (SMILES) | glass transition temperature [°C]
1 | *CC(*)(CC(=O)OC1CCCCCC1)C(=O)OC1CCCCCC1 (repeat unit) | 105.00
2 | *CCCCCCCCCCC(Cl)C(*)Cl (repeat unit) | -32.00
3 | *O[Si](*)(C)CCCOc1ccc(C(=O)Oc2ccc(C(=O)Oc3ccc(OC)cc3)cc2)cc1 (repeat unit) | 38.00
4 | *CC(OC)C1C(=O)OC(=O)C1* (repeat unit) | 153.50
5 | *NC(C)CCC(C)(C)CCCNC(=O)c1ccc(C(*)=O)cc1 (repeat unit) | 150.00
6 | *CC(CCCCCCCC)COC(=O)NC(=O)c1cccc(C(=O)NC(=O)O*)c1 (repeat unit) | 65.00
7 | *CCCCCCOC(=O)Nc1ccc(C)c(NC(=O)OCCCCCCOc2ccc(-c3ccc(O*)cc3)cc2)c1 (repeat unit) | 87.00
8 | *CC(*)C(=O)OCCCCCCOC(=O)c1ccc(OC(=O)c2ccc(C#N)cc2)cc1 (repeat unit) | 30.00
9 | *CCN(CCOC(=O)Nc1ccc(C)c(NC(=O)O*)c1)c1ccc(/N=N/c2ccc([N+](=O)[O-])cc2C)c(C)c1 (repeat unit) | 135.00
10 | *CC(*)c1ccc(C)cc1 (repeat unit) [Poly(p-methyl styrene) ] | 101 ± 1.6
11 | *CCc1cccc(*)c1 (repeat unit) | 9.00
12 | *CCCN(*)C(=O)c1ccccc1 (repeat unit) | 72.00
13 | */C=C(\C#N)C(=O)OCCCCCCOC(=O)/C(C#N)=C/c1ccc2c(c1)c1cc(*)ccc1n2CCCCCCCCCCCOc1ccc(/C=C/c2ccc([N+](=O)[O-])cc2)cc1 (repeat unit) | 87.00
14 | *O[Si](C)(C)c1ccc(-c2ccc([Si](*)(C)C)cc2)cc1 (repeat unit) | 67.00
15 | *CC(C)(C)COC(=O)CCC(=O)O* (repeat unit) | -18.00
16 | *CC(*)(C)C(=O)Oc1ccccc1 (repeat unit) | 110.00
17 | *CC(*)Cc1ccc(C)cc1 (repeat unit) | 65.00
18 | *Cc1cccc(CNC(=O)C2=C(C(=O)N*)C3C=CC2C3)c1 (repeat unit) | 291.00
19 | *CCCC(C)CN1C(=O)c2ccc(C(=O)Oc3ccc4cc(OC(=O)c5ccc6c(c5)C(=O)N(*)C6=O)ccc4c3)cc2C1=O (repeat unit) | 130.00
20 | *Oc1cccc(NC(=O)c2cc(C(=O)Nc3ccc(*)cc3)cc(C(F)(F)C(F)(F)C(F)(F)C(F)(F)F)c2)c1 (repeat unit) | 230.00
21 | *CC(F)(F)C1(F)C(*)CC(O)(C(F)(F)F)C1(F)F (repeat unit) | 152.00
22 | *C(F)(F)C(*)(F)c1ccccc1 (repeat unit) | 206.00
23 | *c1ccc2c(c1)C(CCCCCC)(CCCCCC)c1cc(*)ccc1-2 (repeat unit) | 102.50 ± 2.1
24 | *CC(*)(C)C(=O)OCCOCCOCC[N+](CC)(CC)CCCCS(=O)(=O)O (repeat unit) | 27.00
25 | *CC(O)COc1c(C)cc(S(=O)(=O)c2cc(C)c(O*)c(C)c2)cc1C (repeat unit) | 152.50
26 | *CC(*)(C)C(=O)OCC1COC(=O)O1 (repeat unit) | 124.00

Next, values leading:

Row | glass transition temperature [°C] | Structure (SMILES)
27 | 147.00 | *Oc1ccc(Oc2ccc(NC(=O)c3ccc(Oc4ccc(C(C)(C)c5cccc(C(C)(C)c6ccc(Oc7ccc(C(=O)Nc8ccc(*)cc8)cc7)cc6)c5)cc4)cc3)cc2)cc1 (repeat unit)
28 | 243.00 | *c1ccc(Cc2ccc(NC(=O)c3cccc(Oc4ccc5c(c4)C(=O)N(*)C5=O)c3)cc2)cc1 (repeat unit)
29 | 233.00 | *C(=O)c1ccc2c(c1)C(=O)N(c1ccc(Oc3ccc(C(=O)c4ccc(C(=O)c5ccc(C(=O)c6ccc(Oc7ccc(N8C(=O)c9ccc(*)cc9C8=O)cc7)cc6)cc5)cc4)cc3)cc1)C2=O (repeat unit)
30 | 234.00 | *c1ccc(Oc2ccc(-c3ccc(Oc4ccc(N5C(=O)c6cccc(Oc7ccc(C(c8ccc(Oc9cccc%10c9C(=O)N(*)C%10=O)cc8)(C(F)(F)F)C(F)(F)F)cc7)c6C5=O)cc4)cc3)cc2)cc1 (repeat unit)
31 | 210.00 | *CCCCCCCCCCCCN1C(=O)c2cccc3c(-c4ccc5c6c(cccc46)C(=O)N(CCCCCCCCCCCCN4C(=O)c6ccc7c8ccc9c%10c(ccc(c%11ccc(c6c7%11)C4=O)c%108)C(=O)N(*)C9=O)C5=O)ccc(c23)C1=O (repeat unit)
32 | 282.00 | *C(=O)Nc1ccc(Oc2ccc(NC(=O)c3ccc4c(c3)C(=O)N(c3ccc(Oc5ccc(N6C(=O)c7ccc(*)cc7C6=O)cc5)cc3)C4=O)cc2)cc1 (repeat unit)
33 | 187.00 | *Oc1ccc(/C(=C/c2cc(OC)c(/C=C(/c3ccc(*)cc3)c3ccc(F)cc3)cc2OC)c2ccc(F)cc2)cc1 (repeat unit)
34 | 190.00 | *c1ccc(-c2cc(CCCCCC)c(-c3ccc(-c4ccc5ccc6ccc(*)nc6c5n4)cc3)cc2CCCCCC)cc1 (repeat unit)
35 | 370.00 | *c1ccc(-c2c(-c3ccccc3)nc3ccc(-c4ccc5nc(-c6ccccc6)c(*)c(-c6ccccc6)c5c4)cc3c2-c2ccccc2)cc1 (repeat unit)
36 | 410.00 | *c1cccc(-c2nc3cc(-c4ccc5[nH]c(*)nc5c4)ccc3[nH]2)c1 (repeat unit)
37 | 264.00 | *c1ccc(Oc2ccc(C(c3ccc(Oc4ccc(N5C(=O)c6ccc(Oc7ccc8c(c7)C(=O)N(*)C8=O)cc6C5=O)cc4)cc3)(C(F)(F)F)C(F)(F)F)cc2)cc1 (repeat unit)
38 | 350.00 | *c1ccc(C(c2ccccc2)(c2ccc(-c3nc4ccc(-c5ccc6nc(*)oc6c5)cc4o3)cc2)C(F)(F)F)cc1 (repeat unit)
39 | 273.00 | *C(=O)Nc1ccc(Cc2ccc(NC(=O)c3ccc4c(c3)C(=O)N(c3ccc(Oc5ccc6ccc(Oc7ccc(N8C(=O)c9ccc(*)cc9C8=O)cc7)cc6c5)cc3)C4=O)cc2)cc1 (repeat unit)
40 | 342.00 | *c1ccc(N2C(=O)c3ccc(C(c4ccc5c(c4)C(=O)N(c4ccc(N6C(=O)c7ccc(-c8ccc9c(c8)C(=O)N(*)C9=O)cc7C6=O)cc4)C5=O)(C(F)(F)F)C(F)(F)F)cc3C2=O)cc1 (repeat unit)
41 | 130.00 | *O[Si](c1ccccc1)(c1ccccc1)c1ccc([Si](*)(c2ccccc2)c2ccccc2)cc1 (repeat unit)
42 | 67.00 | *CCCCCCOC(=O)c1cc(OCCCCCCOc2ccc(/N=N/c3ccc(C#N)cc3)cc2)cc(C(=O)OCCCCCCN2C(=O)c3ccc(-c4ccc(-c5ccc6c(c5)C(=O)N(*)C6=O)cc4)cc3C2=O)c1 (repeat unit)
43 | 212.00 | *c1ccc(Oc2ccc(N3C(=O)c4ccc(Oc5ccc(Sc6ccc(Oc7ccc8c(c7)C(=O)N(*)C8=O)cc6)cc5)cc4C3=O)cc2)cc1 (repeat unit)
44 | 234.00 | *c1ccc(Oc2ccc(N3C(=O)c4cccc(Oc5ccc(Sc6ccc(Oc7cccc8c7C(=O)N(*)C8=O)cc6)cc5)c4C3=O)cc2)cc1 (repeat unit)
45 | 216.42 | */N=N/c1ccc(Nc2ccc(C(=O)c3ccc(Nc4ccc(*)cc4)cc3)cc2)cc1 (repeat unit)

Source: the PolyMetriX glass transition set
